The conditions of data set [1]: cited from earlier work.
For data set [2], the system named is Huh-7 (human hepatocellular carcinoma cell line). The arrangement: method as in PMID 35036753. The conditions noted are these: albendazole, reported value; cited from earlier work.
In the next data set the test system is G. lamblia (WB strain). In words: In vivo antigiardial CD-1 mouse model. The arrangement: species or system CD-1 mice. The conditions noted are these: for ED50: Giardia duodenalis, 48 h. Here is the method:
The in vivo antigiardial activity of the compounds was assessed following a previously described phenotypic drug screening method. Female CD-1 mice (16–24 g) were obtained from the animal house facility at Universidad Autónoma Metropolitana, Xochimilco, and were maintained under standard laboratory conditions. The experimental protocols were reviewed and approved by the Animal Care and Use Committee, ensuring compliance with the guidelines for the care and use of laboratory animals. The giardicidal effect of RetroABZ was evaluated on mice infected with trophozoites of the G. lamblia WB strain. Mice were orally treated with a mebendazole solution (10 mg/mouse/day) for 3 consecutive days to ensure their freedom from any potential protozoan infections. One week after treatment, three consecutive fecal examinations were conducted to confirm the absence of protozoan infections before proceeding with experimental infection. Mice (n = 6 per group) were intragastrically infected with 1 × 10^6 trophozoites in 300 µL of a TYI-S-33 medium (Manassas, VA, USA) using a silastic tube ([…]. outside diameter) attached to a 1 mL syringe. Six days after infection, mice were treated intragastrically with 300 µL of RetroABZ dissolved in 1 mL of a 2% DMSO solution in water. […] Five single doses (0.018, 0.037, 0.075, 0.15, and 0.3 mg/kg) of both compounds were evaluated. Forty-eight hours after the treatment (8 days post-infection), the mice were euthanized, and the entire small intestine was removed, opened longitudinally, and placed in 10 mL of a 10% PAF fixer for a minimum of 2 h. Tubes were then vortexed to ensure complete detachment of the trophozoites, and the number of organisms present was calculated for both the treated and control groups.
A data analysis was performed utilizing a Probit analysis. The percentage of surviving trophozoites was calculated by comparing their growth with the control group. To determine the dose required to kill 50% of the trophozoites (ED50), along with the 95% confidence limits, a Probit plot against the logarithm of the drug concentration was generated.

The conditions of data set [3]: cited from earlier work. The source holds these as a separate data set.
The nature of data set [4]: Thermodynamic aqueous solubility (shake-flask, HPLC). In kind it is physicochemical. Particulars: for solubility at 48 h: 37 °C, thermodynamic from solid, water. Here is the method: The aqueous solubility of RetroABZ was assessed using the shake-flask saturation method, as described in previous studies. […] Subsequently, the solution was filtered through a 0.2 μm filter (Phenex-NY 4mm, Torrance, CA, USA). The aqueous solubility of the compound was then determined using an HPLC method. Experimentally, the compound RetroABZ was analyzed with high-performance liquid chromatography (HPLC PerkinElmer 200, Waltham, Massachusetts). The HPLC analysis was performed using an ultraviolet detector (UV/VIS 200). The analite was monitored at a wavelength of 254 nm. Chromatographic separation was performed using a Phenomenex Luna C18 (4.6 × 150 mm, 5 µm, Torrance, CA, USA). The mobile phase utilized in the study consisted of a mixture of methanol and water in a ratio of 60:40 (v/v). The elution from the stationary phase was conducted at a constant flow rate of 1 mL/min (isocratic mode). Aliquots of 20 µL were injected into the HPLC system and the total run time for each injection was set at 10 min; the analysis was performed for triplicate. […] Chromatographic separation was performed using a Phenomenex Luna C18 (4.6 × 150 mm, 5 µm). The mobile phase utilized was a mixture of methanol and a 0.05 M phosphate buffer (pH 5.7), 70:30 (v:v). The flow rate was kept constant at 1 mL/min. To prepare the saturated solution of the compound (1 mg/mL), it was stirred for 48 h at a constant temperature of 37 ± 2 °C. Subsequently, the solution was filtered through a 0.2 µm filter (Phenex-NY 4 mm). Aliquots of 20 µL were injected into the HPLC system, and the analysis was performed for triplicate.

In data set [5] the test system is G. lamblia strain WB trophozoites. In words: In vitro giardicidal assay (trophozoite subculture, Probit analysis). In kind it is cell-based, Giardia lamblia. Particulars: for IC50: Giardia duodenalis. Here is the method:
G. lamblia strain WB was cultured in a TYI-S-33 medium (Manassas, VA, USA) supplemented with 10% calf serum and bovine bile. In vitro susceptibility tests were conducted using 4 × 10^4 trophozoites of G. lamblia. […] Additionally, a control group was incubated solely in a culture medium containing DMSO. Following the incubation period, the trophozoites were washed and subcultured in a fresh medium without drugs for an additional 48 h. Subsequently, the trophozoites count was performed, and the median inhibitory concentration (IC50) was calculated with a Probit analysis. All experimental procedures were replicated in triplicate.

Data set [6] relates to HaCaT (immortalized human keratinocytes). The arrangement: method as in PMID 35036753. Particulars: albendazole, reported value; cited from earlier work.
A short description of data set [7]: In vitro cytotoxic assay (CellTiter 96 AQueous One) in HaCaT. In kind it is cell-based, human. The conditions noted are these: human, HaCaT cells (immortalized keratinocytes). Here is the method:
(§1) The cytotoxic assay of RetroABZ was carried out in Huh-7 (human hepatocellular carcinoma cell line) cells acquired from ATCC (American Type Culture Collection, Manassas, VA, USA). We also included an immortalized human epidermal keratinocyte line (HaCaT) as a control of non-cancerous cells. The cells were cultured in a DMEM medium (Invitrogen, Thermo Fisher Scientific, Inc., Waltham, MA, USA), supplemented with 10% fetal bovine serum (SFB, Invitrogen) and 2 mM glutamine. All cultures were maintained under standard culture conditions (37 °C and 5% CO2). For the cytotoxic assessment in a 96-well plate, 5000 cells per well were planted. […] The cellular viability was next calculated utilizing the CellTiter 96® AQueous One Solution Cell Proliferation Assay kit (Promega, Madison, WI, USA), following the manufacturer’s instructions. The experiments were carried out in triplicate in separate experiments. The Prism 8.0 statistical tool (Graphpad Software Inc., La Jolla, CA, USA) was used to examine the data, and a regression analysis was used to obtain the IC50.

Data set [8] concerns HaCaT (immortalized human keratinocytes). The data set is described as above. Format: cell-based. Particulars: 48 h. Here is the method: as §1
Data set [9] can be described thus: In vitro cytotoxic assay (CellTiter 96 AQueous One) in Huh-7. Particulars: human, Huh-7 cells, 48 h. Format: cell-based, human. Here is the method:
as §1

Data set [10] has as its system Huh-7 (human hepatocellular carcinoma cell line). The data set is described as above. In kind it is cell-based. Here is the method:
as §1

The mark [11] stands for this setting: infected CD-1 mice, single intragastric dose, 48 h after treatment, read-out: ED50.

≈ marks a conversion by molar mass, not a printed value. Where “and” joins values, the source holds several entries; their conditions need not be identical. Equal entries are not always repeated. Where two headings read alike, the source gives them in different places.

One may read the ED50 as the dose at which the effect has come halfway, by size or by number of responders. By solubility is commonly meant the concentration that dissolves in the medium under given conditions. By IC50 is commonly meant the concentration that gives 50% inhibition. In the case of `CCCSc1ccc2nc(NC(=O)OC)[nH]c2c1` [Albendazole], the oral bioavailability is 5% in data set [1] and “less than 5%” in data set [1] (stated in discussion, no reference given). Further, the CC50 is 79.7 ± 1 µM in [2] and 118.2 ± 1 µM in [6]. The ED50 with G. lamblia (WB strain) was 0.055 mg/kg and 0.207 µmol/kg. In data set [3] (25 °C), the documented solubility is 0.02 µg/mL. Also, in [3], the reported solubility is given as 0.2 µg/mL. The solubility at 48 h in [4] (37 ± 2 °C, 48 h, read-out: Solubility in water) stood at 10.6 ± 0.7 µg/mL (≈ 39.8 µM). Also, the IC50 in data set [5] (48 h, read-out: IC50 G. lamblia, trophozoites, 48 h incubation at 37 °C then 48 h subculture) came to 0.196 ± 0.011 µM.

As to `Cc1ncc([N+](=O)[O-])n1CCO` [Metronidazole, reference compound], the ED50 in the data set on G. lamblia (WB strain) (setting [11]) is 0.194 mg/kg and 1.13 µmol/kg.

For the compound `CCCSc1nc2cc(NC(=O)OC)ccc2[nH]1` [RetroABZ, Methyl (2-(propylthio)-1H-benzo[d]imidazol-5-yl)carbamate], the CC50 at 48 h in data set [7] and in data set [9] was over 300 µM throughout. In addition, the values for the CC50 in data set [8] and in data set [10] (48 h) were 588 ± 18.5 µM and 313 ± 22.2 µM, respectively. In addition, the ED50 in the data set on G. lamblia (WB strain) (setting [11]) was 0.0188 µmol/kg and 0.005 mg/kg. Also, in the data set with G. lamblia (WB strain) (ratio of ED50 values), the “in vivo giardicidal activity relative to albendazole” value was found to be 11 fold. Also, in the data set on G. lamblia (WB strain) (ratio of ED50 values), the “in vivo potency relative to metronidazole” value worked out at 39 fold. The compound also returned a solubility at 48 h in data set [4] (Solubility in water) of 246 µg/mL (≈ 926 µM). The compound further had a Solubility in water in data set [4] (48 h) of 245.74 ± 4.07 µg/mL (≈ 926 µM). Further, the “Selectivity Index CC50/IC50 Huh-7” value in [10] (CC50 Huh-7 / IC50 G. lamblia) worked out at 3768. For the same compound, in data set [5] (trophozoites, 48 h incubation at 37 °C then 48 h subculture, read-out: IC50 G. lamblia), the IC50 came out at 0.083 ± 0.013 µM. Moreover, the “in vitro giardicidal activity relative to albendazole” value in [5] (ratio of IC50 values) came out at 2.4 times.
